Columns and labels:
[1] = tested on: pathogenic Th clones from SNF1 mice; assay: Stimulation of nucleosome-specific pathogenic Th clones from SNF1 mice by eluted/synthetic peptides; assay type: cell-based, mouse; conditions: A20 or splenic B+Mφ as APC
Protocol: Fresh splenic, CD4^+ T cells (5×10^5/well) were co-cultured in triplicate wells at an initial concentration of 5×10^5 cells per well, with 10^6 cells per well of either irradiated B+Mφ or mitomycin-C treated A20 APC. Varying concentrations of either control or test peptides were added and the cultures were adjusted to 200 microliters final volume of HL-1 serum-free medium (Hycor Biomedical Inc., Irvine, Calif.) cultures were incubated for 96 hours in flat bottom 96-well plates, and at 18 hours prior to harvesting the cells, 1 microcurie of 3H-Thymidine was added to each well. The incorporated radioactivity was measured by scintillation counting. The Stimulation Index (SI) was calculated by dividing the mean counts per minute (cpm) incorporated in co-cultures of T cells and APC with test peptide by the mean cpm incorporated in control peptide co-cultures. In the case of cytokine assays, experiments were carried out as described for the proliferation assays except that the culture supernatants were removed from duplicate co-culture wells after 24-46 hours of incubation and cytokine assays were performed.
An aliquot of 50 microliters from each HPLC fraction was assayed for stimulating ability as described above. Four characterized Th clones were used as indicators of cytokine secretion (IL-2 and/or IL-4) in response to the peptide fractions, using A20 or splenic B+Mψ as APCs (Adams, et al., 1991, Proc. Natl. Acad. Sci. USA 88:11271-11275; Shi, et al., 1998, J. Exp. Med. 187:367-378). […] Only two out of one hundred fractions tested were able to stimulate Th cell clones. […] The latter was further separated as described, and tested for active fractions of HPLC purified peptides.. Three naturally processed and presented, stimulatory epitopes were identified using these procedures. The sequences of the peptides are as follows: SQKEEEEGAQREKE (EP-1, SEQ ID NO: 23); DWMEEEHGAQREKE (EP-2, SEQ ID NO: 24); and […] (EP-3, or H522-42, SEQ ID NO: 25). The first two peptides were homologous to sequences in a transcription factor, BRN-3, which is identical in chicken, mice and humans (GenBank). […] EP-1 is highly homologous to EP-2, but it also matched a sequence in cytomegalovirus envelope protein at aa position 57-70. Most likely these peptides are derived from some transcription factor in the chromatin that was incubated with the APC. The third sequence (EP-3) was derived from histone H5 (aa position 22-42) in chicken nucleosome, which is homologous to histone H1 sequence of mice and humans at amino acid position 22-42 ([…], SEQ ID NO:26). […] Therefore, the mouse H122-42 is the autoantigenic peptide in mice and is also referred to herein as EP-3. Nested sequences and unrelated sequences that were obtained in the active fractions from the eluates were also synthesized and re-tested.

SNF1 mice = assay: Acceleration of SLE-associated nephritis by immunization with eluted peptides in adjuvant; assay type: in vivo, mouse; conditions: for onset/rate of disease relative to control group (CFA alone or OVA peptide in CFA): immunization from 12 weeks
Description: The animals received three more injections at two weeks interval with 50 micrograms of either an eluted peptide or the control peptide absorbed on alum (Pierce Chemical Co., Rockford, Ill.).

[2] = tested on: short-term CD4+ T cell lines; assay: IL-2 production by short-term CD4+ T cell lines in response to histone peptides (pepscan); assay type: cell-based, human
Protocol: Short-term T cell lines were rapidly thawed from liquid nitrogen and expanded in the presence of plate-bound anti-CD3 mAb, anti-CD28 mAb, and rIL-2 (20 units per milliliter). The expanded cells were transferred to fresh culture wells and rested by incubating in fresh medium for 10 to 14 days. For stimulation assays, 96 well plates were coated with 2 micrograms per milliliter of goat anti-mouse IgG antibodies overnight at 37° C. After washing the plates twice with Dulbecco's phosphate-buffered saline (dPBS), autologous and previously irradiated (3,000 rad) EBV-B cells (APC) were first added to each well at a concentration of 1×10^5 cells per well. The cells (APC) were cultured together with either a core histone peptide or a control peptide for 6 hours in HL-1 serum free medium (Bio Whittaker, Maryland). This procedure was followed by the addition to each well of CD4^+ T cells from the short-term lines at a concentration of 1×10^5 cells per well, and the addition of 0.5 micrograms per milliliter of a mouse monoclonal antibody (mAb) to human CD28. The final volume of the cultures was 200 microliters per well. Cells were co-cultured for 24 hours at 37° C. One-half the volume of supernatant was collected from each well for ELISA analysis of interleukin levels. Fresh medium (100 microliters) was added to cells, and the cells were incubated an additional 48 hours. [^3H] thymidine was added, and the cultures were incubated an additional 18 hours. Incorporated radioactivity was measured to quantitate T cell proliferation as described previously (Desai-Mehta et al., 1995, J. Clin. Invest. 95:53 1-541). HLA class II dependence of antigen-specific responses by the CD4^+ T cells was determined by adding to the co-cultures a blocking antibody from a panel of mAb to HLA class II molecules, as described previously (Desai-Mehta et al., 1995, J. Clin. Invest. 95:53 1-541).
IL-2 secreted by CD4^+ T cells in short term experiments was measured using an ELISA. Capture and biotinylated antibody pairs directed at human IL-2 and standards for use therein were purchased from PharMingen. […]

Substance | stimulation of pathogenic Th clones [1] | mice developed disease (SNF1 mice; by 20 weeks of age) [%] | onset/rate of disease relative to control group (CFA alone or OVA peptide in CFA) (SNF1 mice) | IL-2 production response, percentage of maximal response stimulated by anti-CD3 mAb ([2]; average of 10 lupus T cell lines, baseline 22%) [%] | HLA class II dependence of peptide presentation ([2]; short-term T cell line L-EB, autologous EBV-B cells, blocking mAb)
DWMEEEHGAQREKE (DWMEEEEGAQREKE; Histone fragment) [EP-2] | stimulatory | 60 | developed severe nephritis earlier |  | 
H416-30: 15-mer histone H4 peptide, positions 16-30 |  |  |  | 23±2.6 | 
SQKEEEEGAQREKE (Histone fragment) [EP-1] | stimulatory |  | did not result in any increase in the rate of disease |  | 
H449-63: histone peptide of H4, positions 49-63 (LIYEETRGVLKVFLE) |  |  |  |  | inhibited mainly by anti-DR mAb
